# Target: T1, HePTP (Homo sapiens, UniProt P35236)
# T1 sequence (P35236 1-360): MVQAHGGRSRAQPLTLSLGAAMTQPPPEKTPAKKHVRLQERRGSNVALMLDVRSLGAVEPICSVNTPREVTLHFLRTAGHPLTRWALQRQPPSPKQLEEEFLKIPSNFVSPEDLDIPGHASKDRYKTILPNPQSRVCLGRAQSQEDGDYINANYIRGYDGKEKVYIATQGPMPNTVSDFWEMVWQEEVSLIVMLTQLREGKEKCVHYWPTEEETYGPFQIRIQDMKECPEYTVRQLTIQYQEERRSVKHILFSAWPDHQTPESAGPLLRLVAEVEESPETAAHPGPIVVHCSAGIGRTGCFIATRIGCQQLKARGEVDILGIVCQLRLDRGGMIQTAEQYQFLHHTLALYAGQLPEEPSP
# Experiment: Dose-response OMFP phosphatase assay, HePTP
# Assay type: biochemical
# Conditions: OMFP substrate
compound,measurement,value
"O=C(O)c1ccccc1 [benzoic acid, reference compound]",activity against HePTP (in words),did not inhibit

# Source: publication PMC3288537 (ACS Chemical Biology, 2011)
